Data reported in publication PMC4032190 (Journal of medicinal chemistry, 2014).

Experiments:
XBP-1s expression [1] = test: Inhibition of XBP-1s expression in LPS-stimulated wild-type mouse B cells; type: cell-based; conditions: immunoblot
[2] = target: recombinant human IRE-1 (RNase activity) (Homo sapiens, UniProt O75460); test: In vitro IRE-1 RNase FRET-suppression assay; type: biochemical; conditions: up to 20 µM
[3] = Chemical stability in FRET-suppression assay buffer; conditions: rt, over 12 hours, LCMS
Mino cells = test: PARP cleavage; type: cell-based, human; conditions: 50 µM, 72 h, immunoblot
Jeko cells = test: PARP cleavage; type: cell-based, human; conditions: 50 µM, 72 h, immunoblot
XBP-1s expression [4] = test: Inhibition of XBP-1s expression in Mino cells; type: cell-based, human; conditions: 20 µM, 24 h, immunoblot
XBP-1s expression [5] = test: Inhibition of XBP-1s expression in Jeko cells; type: cell-based, human; conditions: 20 µM, 24 h, immunoblot

Sequence of recombinant human IRE-1 (RNase activity) (O75460 547-977): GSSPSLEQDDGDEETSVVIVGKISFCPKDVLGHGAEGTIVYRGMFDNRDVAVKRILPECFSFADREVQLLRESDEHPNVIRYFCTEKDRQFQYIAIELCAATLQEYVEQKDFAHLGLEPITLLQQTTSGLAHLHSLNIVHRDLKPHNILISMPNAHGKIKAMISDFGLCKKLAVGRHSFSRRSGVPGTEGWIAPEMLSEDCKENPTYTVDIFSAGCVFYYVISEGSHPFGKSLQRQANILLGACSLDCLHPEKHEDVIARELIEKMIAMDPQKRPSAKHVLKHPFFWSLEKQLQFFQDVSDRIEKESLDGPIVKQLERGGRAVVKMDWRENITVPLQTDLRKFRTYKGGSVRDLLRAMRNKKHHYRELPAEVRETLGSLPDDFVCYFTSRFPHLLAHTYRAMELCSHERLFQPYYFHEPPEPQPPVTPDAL

SMILES: O=Cc1c(O)ccc2ccccc12 [Compound 2]
- inhibition of XBP-1s expression (XBP-1s expression [1]; 50 µM): strong inhibition

SMILES: Cc1cc(=O)oc2c(C=O)c(O)ccc12 [Compound 5]
- inhibition of XBP-1s expression (XBP-1s expression [1]; 20 µM, 24 h): strong inhibition

SMILES: NS(=O)(=O)c1cccs1 [Compound 8, reference compound]
- IRE-1 RNase inhibition (in words) [2]: no appreciable inhibition

SMILES: C=CCOC(=O)N1CCc2c(c(=O)oc3c(C4OCCCO4)c(O)ccc23)C1 [Compound 24, Allyl 7-(1,3-dioxan-2-yl)-8-hydroxy-5-oxo-4,5-dihydro-1H-chromeno[3,4-c]pyridine-3(2H)-carboxylate]
- decomposition of the 1,3-dioxane moiety [3]: no significant decomposition

SMILES: C=CCOC(=O)N1CCc2c(c(=O)oc3c(C=O)c(OCc4ccccc4)ccc23)C1 [Compound 27, Allyl 7-formyl-8-benzyloxy-5-oxo-4,5-dihydro-1H-chromeno[3,4-c]pyridine-3(2H)-carboxylate]
- IRE-1 RNase inhibition (in words) [2]: complete loss of potency below 20 µM

SMILES: CN1CCc2c(c(=O)oc3c(C=O)c(O)ccc23)C1 [Compound 30, 8-Hydroxy-3-methyl-5-oxo-2,3,4,5-tetrahydro-1H-chromeno[3,4-c]pyridine-7-carbaldehyde]
- PARP cleavage (Mino cells): more strongly than either 21b or 5
- PARP cleavage (Jeko cells): more strongly than either 21b or 5

SMILES: C=C(C)CN1CCc2c(c(=O)oc3c(C=O)c(O)ccc23)C1 [Compound 33, 8-Hydroxy-3-(2-methylallyl)-5-oxo-2,3,4,5-tetrahydro-1H-chromeno[3,4-c]pyridine-7-carbaldehyde]
- suppression of XBP-1s expression (XBP-1s expression [4]): significant activity
- suppression of XBP-1s expression (XBP-1s expression [5]): significant activity
